The molecules below were run against recombinant human ASK1 protein (Homo sapiens (Human), UniProt Q99683) (assay: ASK1 kinase activity inhibition assay (radiometric 33P incorporation into MBP)). Conditions: Table 3; 20 μM MBP, 10 μM 33P-ATP.
Format: biochemical
Method: ASK1 Kinase Activity Inhibition Assay
Inhibition of ASK1 kinase activity was determined radiometrically using 33P substrate incorporation (Reaction Biology Corp., Malvern, Pa.). Briefly, recombinant human ASK1 protein, 20 μM substrate (myelin basic protein (MBP)), and compound (diluted from DMSO stock to give 1% final DMSO) were incubated in Base Reaction buffer (20 mM Hepes (pH 7.5), 10 mM MgCl2, 1 mM EGTA, 0.02% Brij35, 0.02 mg/mL BSA, 0.1 mM Na3VO4, 2 mM DTT, 1% DMSO) at room temperature for 20 minutes. The reaction was initiated by addition of 10 μM 33P-ATP (specific activity […]). The reaction was then allowed to proceed for 2 hours at room temperature. Upon reaction termination, the mixture was spotted on P81 exchange paper and kinase activity by incorporation of 33P into MBP substrate was detected by filter-binding method.

recombinant human ASK1 protein, sequence (Q99683 whole entry): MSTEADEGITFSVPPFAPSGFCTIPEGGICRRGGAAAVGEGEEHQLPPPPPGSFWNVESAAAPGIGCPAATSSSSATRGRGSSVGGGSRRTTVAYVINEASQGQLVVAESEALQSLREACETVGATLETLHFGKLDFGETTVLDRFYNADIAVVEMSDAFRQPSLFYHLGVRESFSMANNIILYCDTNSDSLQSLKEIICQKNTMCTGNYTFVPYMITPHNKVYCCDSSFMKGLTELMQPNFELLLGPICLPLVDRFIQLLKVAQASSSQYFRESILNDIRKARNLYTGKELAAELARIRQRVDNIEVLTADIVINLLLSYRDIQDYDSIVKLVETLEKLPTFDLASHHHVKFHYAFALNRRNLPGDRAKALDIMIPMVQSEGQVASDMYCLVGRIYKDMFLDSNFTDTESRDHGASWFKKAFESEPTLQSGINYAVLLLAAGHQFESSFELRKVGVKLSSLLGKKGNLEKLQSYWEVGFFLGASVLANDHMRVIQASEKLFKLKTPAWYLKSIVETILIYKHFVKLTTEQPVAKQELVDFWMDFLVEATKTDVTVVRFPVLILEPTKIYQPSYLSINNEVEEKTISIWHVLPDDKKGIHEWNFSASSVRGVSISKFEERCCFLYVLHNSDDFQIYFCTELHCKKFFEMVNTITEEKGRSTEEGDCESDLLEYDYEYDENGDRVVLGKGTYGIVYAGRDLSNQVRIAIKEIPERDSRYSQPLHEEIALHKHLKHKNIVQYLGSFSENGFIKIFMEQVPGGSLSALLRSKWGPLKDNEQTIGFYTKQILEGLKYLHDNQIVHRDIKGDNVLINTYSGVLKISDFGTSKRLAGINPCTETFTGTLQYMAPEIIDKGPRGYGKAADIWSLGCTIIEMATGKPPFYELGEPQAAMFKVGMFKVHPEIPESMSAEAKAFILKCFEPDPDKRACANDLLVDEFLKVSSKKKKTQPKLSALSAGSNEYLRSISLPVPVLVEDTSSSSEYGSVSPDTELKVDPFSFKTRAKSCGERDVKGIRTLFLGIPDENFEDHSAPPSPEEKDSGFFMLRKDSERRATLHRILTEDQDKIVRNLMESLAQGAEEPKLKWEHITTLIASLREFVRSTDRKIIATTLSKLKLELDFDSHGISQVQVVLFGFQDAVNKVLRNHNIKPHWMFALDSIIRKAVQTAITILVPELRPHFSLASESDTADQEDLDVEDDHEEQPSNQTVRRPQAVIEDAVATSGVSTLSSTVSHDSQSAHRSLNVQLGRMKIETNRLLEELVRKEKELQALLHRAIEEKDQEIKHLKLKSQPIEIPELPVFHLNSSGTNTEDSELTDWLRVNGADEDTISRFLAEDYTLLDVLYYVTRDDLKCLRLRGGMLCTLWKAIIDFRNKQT

`Cc1cc(F)c(C(=O)O)cc1-c1ccc2c(c1)C(=O)N(c1cccc(-c3nncn3C(C)C)n1)C2` [Compound 79, 2-Fluoro-5-(2-(6-(4-isopropyl-4H-1,2,4-triazol-3-yl)pyridin-2-yl)-3-oxoisoindolin-5-yl)-4-methylbenzoic Acid] and `CC(C)n1cnnc1-c1cccc(N2Cc3ccc(-c4ccc(F)c(C(=O)O)c4)cc3C2=O)n1` [Compound 3, 2-Fluoro-5-(2-(6-(4-isopropyl-4H-1,2,4-triazol-3-yl)pyridin-2-yl)-3-oxoisoindolin-5-yl)benzoic Acid] are within 1.5-fold of each other in IC50: 4.6 nM for the first, 4.9 nM for the second.

`COC(=O)C(C)(C)c1ccc(-c2ccc3c(c2)C(=O)N(c2cccc(-c4nncn4C(C)C)n2)C3)cc1` [Compound 88, Methyl 2-(4-(2-(6-(4-isopropyl-4H-1,2,4-triazol-3-yl)pyridin-2-yl)-3-oxoisoindolin-5-yl)phenyl)-2-methylpropanoate] and `CC(C)n1cnnc1-c1cccc(N2Cc3ccc(-c4cccc(C(=O)O)c4F)cc3C2=O)n1` [Compound 2, 2-Fluoro-3-(2-(6-(4-isopropyl-4H-1,2,4-triazol-3-yl)pyridin-2-yl)-3-oxoisoindolin-5-yl) Benzoic Acid] are within 1.5-fold of each other in IC50: 4.9 nM for the first, 4.3 nM for the second.

First: O=C(O)CC1CCN(c2ccc3c(c2)C(=O)N(c2cccc(-c4nncn4C4CC4)n2)C3)CC1 [Compound 130, 2-(1-(2-(6-(4-Cyclopropyl-4H-1,2,4-triazol-3-yl)pyridin-2-yl)-3-oxoisoindolin-5-yl)piperidin-4-yl)acetic Acid]
Second: CC(C)n1cnnc1-c1cccc(N2Cc3ccc(-c4ccc5ncc(C(=O)O)n5c4)cc3C2=O)n1 [Compound 123, 6-(2-(6-(4-Isopropyl-4H-1,2,4-triazol-3-yl)pyridin-2-yl)-3-oxoisoindolin-5-yl)imidazo [1,2-a]pyridine-3-carboxylic Acid]
The IC50 of the first is 5.5-fold higher: 19.2 nM for the first, 3.5 nM for the second.

`CC(C)n1cnnc1-c1cccc(N2Cc3ccc(-c4cccc(C5(C(=O)O)CC5)c4)cc3C2=O)n1` [Compound 105, 1-(3-(2-(6-(4-Isopropyl-4H-1,2,4-triazol-3-yl)pyridin-2-yl)-3-oxoisoindolin-5-yl)phenyl)cyclopropane-1-carboxylic Acid] and `O=C(O)c1cccc(-c2ccc3c(c2)C(=O)N(c2cccc(-c4nncn4C4CC4)n2)C3)c1` [Compound 20, 3-(2-(6-(4-Cyclopropyl-4H-1,2,4-triazol-3-yl)pyridin-2-yl)-3-oxoisoindolin-5-yl)benzoic Acid] are within 1.5-fold of each other in IC50: 7.3 nM for the first, 5.3 nM for the second.

`CC(C)n1cnnc1-c1cccc(N2Cc3ccc(-c4cc(F)c(C(=O)O)c(F)c4)cc3C2=O)n1` [Compound 78, 2,6-Difluoro-4-(2-(6-(4-isopropyl-4H-1,2,4-triazol-3-yl)pyridin-2-yl)-3-oxoisoindolin-5-yl) Benzoic Acid] and `O=C(O)c1ccc(-c2ccc3c(c2)C(=O)N(c2cccc(-c4nncn4C4CC4)n2)C3)cc1` [Compound 71, 4-(2-(6-(4-Cyclopropyl-4H-1,2,4-triazol-3-yl)pyridin-2-yl)-3-oxoisoindolin-5-yl)benzoic Acid] are within 1.5-fold of each other in IC50: 4.6 nM for the first, 4.3 nM for the second.

Going from `CC(C)n1cnnc1-c1cccc(N2Cc3ccc(-c4ccc(C5(C(=O)O)CC5)cc4)cc3C2=O)n1` [Compound 86, 1-(4-(2-(6-(4-Isopropyl-4H-1,2,4-triazol-3-yl)pyridin-2-yl)-3-oxoisoindolin-5-yl)phenyl)cyclopropane-1-carboxylic Acid] to `CC(C)n1cnnc1-c1cccc(N2Cc3ccc(-c4cc(F)cc(C(=O)O)c4)cc3C2=O)n1` [Compound 4, 3-Fluoro-5-(2-(6-(4-isopropyl-4H-1,2,4-triazol-3-yl)pyridin-2-yl)-3-oxoisoindolin-5-yl)benzoic Acid], the IC50 rises from 1.83 nM to 6.7 nM (3.7-fold).

`O=C1c2cc(-c3ccc(-c4nnn[nH]4)cc3)ccc2CN1c1cccc(-c2nncn2C2CC2)n1` [Compound 92, 6-(4-(2H-Tetrazol-5-yl)phenyl)-2-(6-(4-cyclopropyl-4H-1,2,4-triazol-3-yl)pyridin-2-yl)isoindolin-1-one] and `CC(C)n1cnnc1-c1cccc(N2Cc3ccc(-c4cc(F)cc(C(=O)O)c4F)cc3C2=O)n1` [Compound 97, 2,5-Difluoro-3-(2-(6-(4-isopropyl-4H-1,2,4-triazol-3-yl)pyridin-2-yl)-3-oxoisoindolin-5-yl) Benzoic Acid] are within 1.5-fold of each other in IC50: 5.52 nM for the first, 4.7 nM for the second.

Going from `CC(C)n1cnnc1-c1cccc(N2Cc3ccc(-c4ccc(CO)c(C(=O)O)c4)cc3C2=O)n1` [Compound 35, 2-(Hydroxymethyl)-5-(2-(6-(4-isopropyl-4H-1,2,4-triazol-3-yl)pyridin-2-yl)-3-oxoisoindolin-5-yl)benzoic Acid] to `CCc1sc(C(=O)O)cc1-c1ccc2c(c1)C(=O)N(c1cccc(-c3nncn3C(C)C)n1)C2` [Compound 62, 5-Ethyl-4-(2-(6-(4-isopropyl-4H-1,2,4-triazol-3-yl)pyridin-2-yl)-3-oxoisoindolin-5-yl)thiophene-2-carboxylic Acid], the IC50 rises from 4 nM to 6.8 nM (1.7-fold). The first is the more potent here.

`COC(=O)c1cccc(-c2ccc3c(c2)C(=O)N(c2cccc(-c4nncn4C(C)C)n2)C3)c1` [Compound 99, Methyl 3-(2-(6-(4-isopropyl-4H-1,2,4-triazol-3-yl)pyridin-2-yl)-3-oxoisoindolin-5-yl)benzoate] and `COc1ccc(-c2ccc3c(c2)C(=O)N(c2cccc(-c4nncn4C(C)C)n2)C3)cc1C(=O)O` [Compound 96, 5-(2-(6-(4-Isopropyl-4H-1,2,4-triazol-3-yl)pyridin-2-yl)-3-oxoisoindolin-5-yl)-2-methoxybenzoic Acid] are within 1.5-fold of each other in IC50: 6.37 nM for the first, 4.9 nM for the second.

“6-(2-(6-(4-Isopropyl-4H-1,2,4-triazol-3-yl)pyridin-2-yl)-3-oxoisoindolin-5-yl)pyridazine-4-carboxylic Acid [Compound 119]” and `CC(C)n1cnnc1-c1cccc(N2Cc3ccc(-c4ccc5nc(C(=O)O)sc5c4)cc3C2=O)n1` [Compound 121, 6-(2-(6-(4-Isopropyl-4H-1,2,4-triazol-3-yl)pyridin-2-yl)-3-oxoisoindolin-5-yl)benzo[d]thiazole-2-carboxylic Acid] are within 1.5-fold of each other in IC50: 5.2 nM for the first, 4.1 nM for the second.

`CC(C)n1cnnc1-c1cccc(N2Cc3ccc(-c4cncc(C(=O)O)c4)cc3C2=O)n1` [Compound 63, 5-(2-(6-(4-Isopropyl-4H-1,2,4-triazol-3-yl)pyridin-2-yl)-3-oxoisoindolin-5-yl)nicotinic Acid] and `Cc1c(C(=O)O)cccc1-c1ccc2c(c1)C(=O)N(c1cccc(-c3nncn3C(C)C)n1)C2` [Compound 94, 3-(2-(6-(4-Isopropyl-4H-1,2,4-triazol-3-yl)pyridin-2-yl)-3-oxoisoindolin-5-yl)-2-methylbenzoic Acid] are within 1.5-fold of each other in IC50: 5.1 nM for the first, 6.9 nM for the second.

Going from `CC(C)n1cnnc1-c1cccc(N2Cc3ccc(-c4cc(C(=O)O)ccc4F)cc3C2=O)n1` [Compound 5, 4-Fluoro-3-(2-(6-(4-isopropyl-4H-1,2,4-triazol-3-yl)pyridin-2-yl)-3-oxoisoindolin-5-yl)benzoic Acid] to `Cc1cc(C(=O)O)c(C#N)c(-c2ccc3c(c2)C(=O)N(c2cccc(-c4nncn4C(C)C)n2)C3)n1` [Compound 118, 3-Cyano-2-(2-(6-(4-isopropyl-4H-1,2,4-triazol-3-yl)pyridin-2-yl)-3-oxoisoindolin-5-yl)-6-methylisonicotinic Acid], the IC50 rises from 0.3 nM to 67.1 nM (220-fold).

Molecule `CC(C)n1cnnc1-c1cccc(N2Cc3ccc(N4CCC(C(=O)O)CC4)cc3C2=O)n1` [Compound 128, 1-(2-(6-(4-isopropyl-4H-1,2,4-triazol-3-yl)pyridin-2-yl)-3-oxoisoindolin-5-yl)piperidine-4-carboxylic acid] has an IC50 of 6.16 nM.

From patent publication US10654833B2, “ASK1 isoindolin-1-one inhibitors and methods of use thereof” (Hepatikos Therapeutics, LLC, priority 2018, dated 2020)
